System: diabetic mice with lower limb ischemia
Experiment: Diabetic lower limb ischemia mouse model, blood flow by laser Doppler flowmetry
Assay type: in vivo
Conditions: 3.125 ng/g of VEGF in composition DIV
Method: C57BL/6 male mice were sourced from the National Cheng Kung University (NCKU) Laboratory Animal Center or BioLASCO Taiwan Co., Ltd. They were housed in the animal facility of the NCKU Institute of Biotechnology for at least one week in order for them to adapt to the environment before experiments were performed.
Since low blood sugar levels in mice would interfere with the results, mice with blood sugar levels within the range of 400 mg/dl to 550 mg/dl were used for the experiments, and minute amount of insulin might be applied to mice to avoid life-threatening high blood sugar levels. In order to avoid the possibility of self-regenerative neovascularization, the femoral artery and its peripheral blood vessels in the lower limbs of the mice were severed. The model minimized the possibility of blood vessel regeneration, which allowed a more accurate assessment of the angiogenic ability of testing drugs. […]
At day 0, 1, 2, 3, 4, 5, 6, 7, 14, 21 and 28 post-surgery, the apparent appearance and blood flow of the lower limb in the mice were evaluated using the score system shown in Table 1 and laser Doppler flowmetry, respectively. ROI was calculated as the ratio of the blood flow signal of the left lower limb to that of the untreated right lower limb post-surgery, and the ratio in percentage was normalized based on the blood flow signal taken before the operation.

VEGF
Blood flow compared with the control group: significantly increased the blood flow at day 14 and then on post surgery
